The source of these data is patent publication US5789434A, “Derivatives of substituted 4-biarylbutyric acid as matrix metalloprotease inhibitors” (priority 1995, dated 1998).

A word on the inhibition: it is how much of the control response was suppressed. The IC50 is the concentration needed to halve the response being measured.

One assay deals with T1, MMP-3 (Homo sapiens, UniProt P08254).
T1 construct: Truncated Prostromelysin-257 was expressed in a soluble form in E.coli; made in house; host or cells: E. coli
The experiment in a line: Primary Thiopeptilide MMP-3 Inhibition Assay. To be noted: for inhibition at 5 µM: read-out: MMP-3 Thiopep. % inhibition; for IC50: pH 6.5, 13 nM stromelysin, x (n) = average of n determinations, read-out: MMP-3 Thiopep. IC50. In kind it is biochemical.

Another assay addresses T2, MMP-9 (Homo sapiens, UniProt P14780).
T2 construct: from tissue; host or cells: human polymorphonuclear leukocytes (PMN) from whole blood (New York Blood Center), PMA-stimulated supernatant
The experiment in a line: Thiopeptilide MMP-9 Inhibition Assay. It counts as biochemical. The note with it: for inhibition at 5 µM: read-out: MMP-9: Thiopep. % inhibition; for IC50: pH 6.5, x (n) = average of n determinations, read-out: MMP-9: Thiopep. IC50.

T1 sequence (P08254 100-274 limits assumed): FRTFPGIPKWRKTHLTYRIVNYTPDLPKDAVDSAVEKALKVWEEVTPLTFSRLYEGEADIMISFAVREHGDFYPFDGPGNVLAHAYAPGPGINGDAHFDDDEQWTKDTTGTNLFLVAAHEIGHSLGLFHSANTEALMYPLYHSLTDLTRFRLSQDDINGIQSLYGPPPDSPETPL
T2 sequence (P14780 107-707 limits assumed): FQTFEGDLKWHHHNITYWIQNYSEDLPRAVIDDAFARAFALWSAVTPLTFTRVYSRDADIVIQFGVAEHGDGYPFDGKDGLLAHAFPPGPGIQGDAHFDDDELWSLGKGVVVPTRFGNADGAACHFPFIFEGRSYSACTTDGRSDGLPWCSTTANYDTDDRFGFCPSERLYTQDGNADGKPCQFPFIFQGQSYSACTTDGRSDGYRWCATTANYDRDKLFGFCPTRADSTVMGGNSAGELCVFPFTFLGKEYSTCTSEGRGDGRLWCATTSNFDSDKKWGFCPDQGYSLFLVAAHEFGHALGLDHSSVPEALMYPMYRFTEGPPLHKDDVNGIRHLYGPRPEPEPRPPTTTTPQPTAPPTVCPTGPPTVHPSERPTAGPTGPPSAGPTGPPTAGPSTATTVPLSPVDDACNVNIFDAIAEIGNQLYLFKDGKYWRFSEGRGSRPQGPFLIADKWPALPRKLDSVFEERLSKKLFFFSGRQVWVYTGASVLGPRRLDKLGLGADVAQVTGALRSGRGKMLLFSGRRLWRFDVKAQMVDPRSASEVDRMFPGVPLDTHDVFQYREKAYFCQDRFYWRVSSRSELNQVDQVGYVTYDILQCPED
Method for MMP-3: Enzyme: recombinant stromelysin expressed in E.coli and purified as described above. […] The protocols for the assay of compounds as stromelysin inhibitors was the same as that used for MMP-9 except that the assay buffer was 50 mM MES, pH 6.5 containing 150 mM NaCl, 10 mM CaCl2, 0.005% Brij, and 1% DMSO.

Take `O=C(CC(CCCc1ccccc1)C(=O)O)c1ccc(-c2ccc(Cl)cc2)o1` (stereo not drawn) [Example 350, 2-Furanbutanoic acid, 5-(4-chlorohenyl)-γ-oxo-α-(3-phenylpropyl)-]: the inhibition at 5 µM was 4% at MMP-3 and 20% at MMP-9.

Turning to `O=C(O)C1C2C=CC(CC2)C1C(=O)c1ccc(-c2ccc(Cl)cc2)cc1` (centres unmarked) [Example 330], the inhibition at 5 µM on MMP-3 worked out at 9%; at MMP-9 it was 16%.

For the compound `COc1ccc(CSCC(CC(=O)c2ccc(-c3ccc(Cl)cc3)cc2)C(=O)O)cc1` (stereo not drawn) [Example 201, [1,1'-Biphenyl]-4-butanoic acid, 4'-chloro-α-[[[(4-methoxyphenyl)methyl]thio]methyl]-γ-oxo-], the IC50 on MMP-3 was 0.34 µM; at MMP-9, 0.8 µM.

On to `O=C(CC(CCCc1ccccc1)C(=O)O)c1ccc(-c2cccs2)cc1` (stereo not drawn) [Example 80, Benzenepentanoic acid, α-[2-oxo-2-[4-(2-thienyl)phenyl]ethyl]-], for which the IC50 at MMP-3 was found to be 0.47 µM; on MMP-9, 0.8 µM.

`O=C(O)[C@@H]1[C@@H](C(=O)c2ccc(-c3ccc(Cl)cc3)cc2)CC[C@H]1Sc1ccc(F)cc1` (relative stereo) [Example 309, Cyclopentanecarboxylic acid, 2-[(4'-chloro[1,1'-biphenyl]-4-yl)carbonyl]-5-[(4-fluorophenyl)thio]-, (1α,2β-5β)-]: the half-inhibitory concentration (IC50) on MMP-3 was 0.073 µM; on MMP-9, 0.062 µM.

For `COC(=O)c1ccccc1S[C@H]1CC[C@H](C(=O)c2ccc(-c3ccc(Cl)cc3)cc2)[C@H]1C(=O)O` (relative stereo) [Example 298, trans-5-[4-(4-chlorophenyl)phenylcarbonyl]-cis-2-(2-methoxycarbonylphenylthio)cyclopentanecarboxylic acid], the IC50 on MMP-3 stood at 0.05 µM; on MMP-9, 0.85 µM.

As to `Cc1cccc(SCC(CC(=O)c2ccc(-c3ccc(Cl)cc3)cc2)C(=O)O)c1` (stereo not drawn) [Example 231, [1,1'-Biphenyl]-4-butanoic acid, 4'-chloro-α-[[(3-methylphenyl)thio]methyl]-γ-oxo-], the 50% inhibitory concentration (IC50) was found to be 0.28 µM at MMP-3 and 0.82 µM at MMP-9.

With `CC(C)(C)c1ccc(SCC(CC(=O)c2ccc(-c3ccc(Cl)cc3)cc2)C(=O)O)cc1` (stereo not drawn) [Example 213, [1,1'-Biphenyl]-4-butanoic acid, 4'-chloro-α-[[(4-(1,1-dimethylethyl)phenyl]thio]methyl]-γ-oxo-], at MMP-3, the concentration for half-maximal inhibition (IC50) is 2.5 µM. Moreover, the inhibition at 5 µM on MMP-9 was 41%.

In the case of `O=C(CC(CSc1ccccc1Cl)C(=O)O)c1ccc(-c2ccc(Cl)cc2)cc1` (stereo not drawn) [Example 230, [1,1'-Biphenyl]-4-butanoic acid, 4'-chloro-α-[[(2-chlorophenyl)thio]methyl]-γ-oxo-], the IC50 at MMP-3 amounted to 0.25 µM; on MMP-9 it was 0.55 µM.

`O=C(CC(CSc1cccc2cccnc12)C(=O)O)c1ccc(-c2ccc(Cl)cc2)cc1` (stereo not drawn) [Example 241, [1,1'-Biphenyl]-4-butanoic acid, 4'-chloro-γ-oxo-α-[(8-quinolinylthio)methyl]-]: the results for the IC50 at MMP-3 and at MMP-9 were 0.195 µM and 0.34 µM, respectively.

For the compound `CC(C)(CCC(=O)c1ccc(-c2ccc(Cl)cc2)cc1)C(=O)O` [Example 337, [1,1'-Biphenyl]-4-pentanoic acid, 4'-chloro-α,α-dimethyl-δ-oxo-], the inhibition at 5 µM on MMP-3 stood at 20%; at MMP-9 it was 2%.

Consider `CCCCCCCOc1ccc(-c2ccc(C(=O)CC(CCCc3ccccc3)C(=O)O)cc2)cc1` (stereo not drawn) [Example 92, [1,1'-Biphenyl]-4-butanoic acid, 4'-(heptyloxy)-γ-oxo-α-(3-phenylpropyl)-], for which the inhibition at 5 µM worked out at 60% on MMP-3 and 26% at MMP-9.

For `C#CCC(CC(=O)c1ccc(-c2ccc(Cl)cc2)cc1)C(=O)O` (stereo not drawn) [Example 121, [1,1'-Biphenyl]-4-butanoic acid, 4'-chloro-γ-oxo-α-2-propynyl-], at MMP-3, the IC50 was 1 µM. In addition, at MMP-9, the inhibition at 5 µM came to 45%.

In the case of `CC(C)CC(CCC(=O)c1ccc(-c2ccc(Cl)cc2)cc1)C(=O)O` (stereo not drawn) [Example 338, [1,1'-Biphenyl]-4-pentanoic acid, 4'-chloro-α-(2-methylpropyl)-δ-oxo-], the values for the inhibition at 5 µM at MMP-3 and at MMP-9 were 24% and 32%, respectively.

For the compound `COc1ccccc1SCC(CC(=O)c1ccc(-c2ccc(Cl)cc2)cc1)C(=O)O` (stereo not drawn) [Example 229, [1,1'-Biphenyl]-4-butanoic acid, 4'-chloro-α-[[(2-methoxyphenyl)thio]methyl]-γ-oxo-], the half-maximal inhibitory concentration (IC50) on MMP-3 was found to be 0.3 µM; at MMP-9, 0.9 µM.

For the compound `CCc1ccc(-c2ccc(C(=O)CC(CC(C)C)C(=O)O)nc2)cc1` (stereo not drawn) [Example 61, 2-Pyridinebutanoic acid, 5-(4-ethylphenyl)-α-(2-methylpropyl)-γ-oxo-], the inhibition at 5 µM was found to be 35% at MMP-3 and 22% at MMP-9.

Turning to `O=C(CC(C/C=C/c1ccccc1)C(=O)O)c1ccc(-c2ccc(Cl)cc2)cc1` (stereo not drawn) [Example 183, [1,1'-Biphenyl]-4-butanoic acid, 4'-chloro-γ-oxo-α-(3-phenyl-2-propenyl)-, (E)-], the IC50 at MMP-3 turned out to be 0.27 µM; at MMP-9, 0.71 µM.

Regarding `Nc1ccc(-c2ccc(C(=O)CC(CCCc3ccccc3)C(=O)O)cc2)cc1` (stereo not drawn) [Example 58, [1,1'-Biphenyl]-4-butanoic acid, 4'-amino-γ-oxo-α-(3-phenylpropyl)-], the figures for the IC50 on MMP-3 and on MMP-9 were 1.2 µM and 1.5 µM, respectively.

Regarding `O=C(c1ccc(-c2ccc(Cl)cc2)cc1)[C@H]1CC[C@H]1C(=O)O` (relative stereo) [Example 290, Cyclobutanecarboxylic acid, 2-[(4'-chloro[1,1'-biphenyl]-4-yl)carbonyl]-, cis-], the inhibition at 5 µM at MMP-3 was determined as 35%; at MMP-9 it was 15%.

Turning to `O=C(CC(CCc1ccccc1)C(=O)O)c1ccc(-c2ccc([N+](=O)[O-])cc2)cc1` (stereo not drawn) [Example 124, [1,1'-Biphenyl]-4-butanoic acid, 4'-nitro-γ-oxo-α-(2-phenylethyl)-], at MMP-3, the IC50 was 0.18 µM. In addition, at MMP-9, the inhibition at 5 µM stood at 28%.

With `O=C(CC(CSc1ccc(F)cc1)C(=O)O)c1ccc(-c2ccc(Cl)cc2)cc1` (stereo not drawn) [Example 208, [1,1'-Biphenyl]-4-butanoic acid, 4'-chloro-α-[[(4-fluorophenyl)thio]methyl]-γ-oxo-], the 50% inhibitory concentration (IC50) on MMP-3 is 0.14 µM; on MMP-9, 1.05 µM.

Regarding `O=C(CC(CCCc1ccccc1)C(=O)O)c1ccc(-c2ccc([N+](=O)[O-])cc2)cc1` (stereo not drawn) [Example 63, [1,1'-Biphenyl]-4-butanoic acid, 4'-nitro-γ-oxo-α-(3-phenylpropyl)-], the concentration for half-maximal inhibition (IC50) is 0.98 µM at MMP-3 and 0.5 µM on MMP-9.

`CC(=O)SCC(CC(=O)c1ccc(C)cc1)C(=O)O` (stereo not drawn) [Example 253, Benzenebutanoic acid, α-[(acetylthio)methyl]-4-methyl-γ-oxo-, reference compound]: the inhibition at 5 µM at MMP-3 was determined as 0%; at MMP-9, 21%.

As for `CC(C)CC(CCC(=O)O)C(=O)c1ccc(-c2ccc(Cl)cc2)cc1` (centres unmarked) [Example 342], the IC50 on MMP-3 amounted to 0.36 µM; on MMP-9, 0.7 µM.

`O=C(CC(CCCc1ccccc1)C(=O)O)c1ccc(-c2ccc(OCCCl)cc2)cc1` (stereo not drawn) [Example 52, [1,1'-Biphenyl]-4-butanoic acid, 4'-(2-chloroethoxy)-γ-oxo-α-(3-phenylpropyl)-]: the IC50 stood at 0.076 µM at MMP-3 and 0.037 µM on MMP-9.

As to `O=C(O)CC1(CC(=O)c2ccc(-c3ccc(Cl)cc3)cc2)CCCCC1` [Example 339, Cyclohexaneacetic acid, 1-[2-(4'-chloro[1,1'-biphenyl]-4-yl)-2-oxoethyl]-], the results for the IC50 at MMP-3 and at MMP-9 were 1.7 µM and 1.5 µM, respectively.

With `O=C(CC(CCCc1ccccc1)C(=O)O)c1ccc(-c2cc(C(F)(F)F)cc(C(F)(F)F)c2)cc1` (stereo not drawn) [Example 79, [1,1'-Biphenyl]-4-butanoic acid, γ-oxo-α-(3-phenylpropyl)-3',5'-bis(trifluoromethyl)-], the inhibition at 5 µM worked out at 12% on MMP-3 and 9% at MMP-9.

On to `O=C(O)CCC(=O)c1ccc(-c2ccc(Br)cc2)cc1` [Example 7, [1,1'-Biphenyl]-4-butanoic acid, 4'-bromo-γ-oxo-, reference compound], for which the 50% inhibitory concentration (IC50) on MMP-3 came to 0.69 µM; at MMP-9 it was 2.1 µM.

As for `O=C(CC(CSc1ccc(Br)cc1)C(=O)O)c1ccc(-c2ccc(Cl)cc2)cc1` (stereo not drawn) [Example 210, [1,1'-Biphenyl]-4-butanoic acid, α-[[(4-bromophenyl)thio]methyl]-4'-chloroγ-oxo-], the IC50 worked out at 0.5 µM at MMP-3 and 0.205 µM at MMP-9.

`CC(=O)SCC(CC(=O)O)C(=O)c1ccc(-c2ccc(Cl)cc2)cc1` (stereo not drawn) [Example 258, [1,1'-Biphenyl]-4-butanoic acid, β-[(acetylthio)methyl]-4'-chloro-γ-oxo-, reference compound]: the IC50 on MMP-3 amounted to 0.82 µM; on MMP-9 it was 2.1 µM.

Regarding `O=C(CC(CSc1ccccc1C(=O)O)C(=O)O)c1ccc(-c2ccc(Cl)cc2)cc1` (centres unmarked) [Example 233], the IC50 on MMP-3 was 0.339 µM; on MMP-9, 4.8 µM.

For `C[C@@H](C(=O)O)[C@@H](C)C(=O)c1ccc(-c2ccc(Cl)cc2)cc1` (relative stereo) [Example 283, [1,1'-Biphenyl]-4-butanoic acid, 4'-chloro-α,β-dimethyl-γ-oxo-, (R*,R*)-], the values for the half-inhibitory concentration (IC50) at MMP-3 and at MMP-9 were 2.4 µM and 7 µM, respectively.

`COc1cccc(CCC(CC(=O)c2ccc(-c3ccc(Cl)cc3)cc2)C(=O)O)c1` (stereo not drawn) [Example 188, [1,1'-Biphenyl]-4-butanoic acid, 4'-chloro-α-[2-(3-methoxyphenyl)ethyl]-γ-oxo-]: the half-maximal inhibitory concentration (IC50) at MMP-3 is 0.151 µM; at MMP-9, 1.3 µM.

For `O=C(CC(CCCc1ccccc1)C(=O)O)c1ccc(-c2ccc(C(F)(F)F)cc2)cc1` (stereo not drawn) [Example 62, [1,1'-Biphenyl]-4-butanoic acid, γ-oxo-α-(3-phenylpropyl)-4'-(trifluoromethyl)-], the IC50 on MMP-3 stood at 0.4 µM; at MMP-9, 4.5 µM.
